Measurements as given in patent publication US20190314311A1, “PHARMACEUTICAL COMPOSITION” (JAPAN SCIENCE AND TECHNOLOGY AGENCY, priority 2016, published 2019).

Legend:
[1] = test system: Q40-GFP expressing nematode line; assay: SDD-AGE of polyQ oligomers in nematode lysates; assay type: in vivo, Caenorhabditis elegans; conditions: 10 mM arginine
Method: SDD-AGE was performed as follows. First, nematodes were lysed in lysis buffer (0.5% SDS, 0.5% NP-40, 50 mM Tris-HCl, 150 mM NaCl, 5 mM EDTA, protease inhibitor cocktail), the resulting lysate was run on a 1% agarose gel with 0.01% SDS in a running buffer of Tris-Glycine containing 0.01% SDS, and then transferred overnight onto a nitrocellulose membrane. For subsequent western blot analysis, the membrane was incubated with the anti-GFP antibody (MBL Life sciences) at 10,000 dilution as the primary antibody at 4° C. overnight, and then with the HRP-conjugated anti-rabbit IgG antibody (MBL Life sciences) at 20,000 dilution as the secondary antibody. Immunoblots were imaged using the Lumino image analyzer system “ImageQuant LAS 4000” (GE Healthcare Life Sciences) and analyzed using “ImageQuantTL” (GE Healthcare Life Sciences).

[2] = test system: Q40-GFP expressing nematode line; assay: lifespan analysis in C. elegans model of the PolyQ diseases; assay type: in vivo, Caenorhabditis elegans; conditions: 10 mM arginine; log-rank P<0.01
Method: As a C. elegans model of the polyQ diseases, a Q40-GFP expressing nematode line (Non-Patent Document 14), which is a C. elegans line expressing GFP having a polyQ repeat consisting of 40 glutamines (Q40-GFP) was used.
Nematodes were grown at 20° C. on nematode growth medium (NGM) plates seeded with Escherichia coli OP50. For the generation of the Q40-GFP expression nematode line, plasmids encoding Q40-GFP were injected into wild type strain N2.
For lifespan analysis, nematodes were cultured on OP50 bacteria, and were examined daily for signs of life.

Thio-Q62 protein [3] = assay: protein aggregation turbidity assay; assay type: biochemical; conditions: 8.2 μM Thio-Q62, 600 mM arginine, PBS, 37° C., neutral pH, 5 days
Method: In the subsequent experiments, the protein aggregation turbidity assay was performed by the method described in Non-Patent Document 6. Specifically, it was performed as follows.
(§1) A solution in which abnormally expanded proteins were dissolved in physiological saline phosphate (PBS) was used as a measurement sample. The solution was incubated at 37° C., and turbidity at 405 nm was measured every 24 hours using a microplate reader “Spectramax Plus plate reader” (Molecular Devices Inc.).
As an abnormally expanded PolyQ protein, a Thioredoxin-Q62 (Thio-Q62) fusion protein consisting of Thioredoxin and a PolyQ stretch with 62 glutamines was used.
As a control, Thio-Q62 protein alone was incubated in the same manner, and the turbidity was measured every 24 hours.
As controls, a solution containing Thio-Q62 protein alone, and a solution containing Thio-Q62 protein and 400 mM proline were incubated in the same manner, respectively, and turbidity was measured after 5 days. […] The relative turbidity (%) of each solution was measured. The turbidity of the solution containing Thio-Q62 protein alone was set to 100%. In the figure, values represent means±SEM (n=3). “*” represents p<0.05, “***” represents p<0.001, “n.s.” represents not significant.

Thio-Q62 protein [4] = assay: seed-induced polyQ aggregation reaction (turbidity); assay type: biochemical; conditions: 10 μM Thio-Q62 + seeds, 400 mM arginine or proline, 37° C., 7 days
Method: as §1

Thio-Q62 protein [5] = assay: native PAGE of β-sheet conformational transition; assay type: biochemical; conditions: 8.2 μM Thio-Q62, 600 mM arginine, PBS pH 7.5, 37° C., five days
Source text: The separated proteins were stained with Coomassie brilliant blue (CBB).

[6] = Non-Patent Document 5; cited from earlier work
[7] = test system: COS-7 cells expressing Q45-GFP; assay: FCS analysis of polyQ oligomer formation in cell lysates; assay type: cell-based; conditions: 25 mM arginine, lysed 48 hours after transfection
Method: For polyQ oligomer formation, the fluorescent protein GFP fused with a protein having a PolyQ repeat consisting of 45 glutamines (Q45-GFP) was used as the monomer. Two indices obtained from FCS measurement were used to assess the property of polyQ oligomers; counts per particle (CPP) and the diffusion time of the fast components (DT1) (Non-Patent Document 11). […] DT1 reflects the size of the Q45-GFP oligomers.
FCS analysis was performed by the method described in Non-Patent Document 11. […] The cell lysates were gently sonicated and centrifuged to remove insoluble Q45-GFP inclusion bodies. The resulting supernatants containing no visible inclusion bodies were subjected to FCS measurements. From the measurements, the diffusion time, which corresponds to the average time for diffusion of fluorescent particles across the detection area and CPP, which directly reflects the number of fluorescent molecules per particle, were calculated.

SCA1 mice = assay: rotarod test, arginine from 5 weeks of age (after onset); assay type: in vivo, mouse; conditions: 6% arginine in drinking water from 5 weeks of age; 7 to 19 weeks of age; significant at 15 and 19 weeks
Method: An important factor of consideration in developing treatments for neurodegenerative diseases including polyQ diseases is whether the drug exerts its therapeutic effect at the symptomatic phase when the pathological process has already progressed. To date, therapeutic candidates have been administered to polyQ disease mice prophylactically at the pre-symptomatic phase in most preclinical studies.
The rotarod test was carried out in the same manner as in Example 4. The time courses of the amount of walking time until wild type mice and SCA1 mice fell from the rotarod (Latency) are shown in FIG. 21. In the figure, “WT Water”, “WT Arg”, “SCA1 Water”, and “SCA1 Arg” represent the same as in FIG. 17. In the figure, values represent means±SEM (n=23-25), “*” represents p<0.05.

MJDtr-Q78(S) flies = assay: Drosophila model of the PolyQ diseases (SCA3/MJD); assay type: in vivo, Drosophila melanogaster
Method: The spinocerebellar ataxia type 3 (SCA3/MJD) model flies were used, which express the truncated form of the MJD protein with an abnormally expanded polyQ repeat consisting of 78 glutamines (MJDtr-Q78) in the compound eye (Non-Patent Document 12). The severe compound eye degeneration induced by MJDtrQ78 can be easily detected under the light microscope.
Fly culture and crosses were performed under standard conditions at 25° C. The MJDtr-Q78(S) transgenic fly line bearing the UAS-MJDtr-Q78 transgene for expression of MJDtr-Q78 described in Non-Patent Document 12 was used. The fly line bearing the gmr-GAL4 transgene was obtained from the Drosophila Genetic Resource Center at Kyoto Institute of Technology, Japan. […] For evaluation of compound eye degeneration, light microscopic images of the compound eye were taken using a stereoscopic microscope model “SZX9” (Olympus). For detection of the MJDtr-Q78 protein in eye imaginal discs of third instar larvae, immunostaining with an anti-hemagglutinin antibody (clone 3F10, Roche) was performed according to the method described in Non-Patent Document 13. Fluorescence microscopic images were taken using a confocal laser scanning microscope model “LSM510” (Carl Zeiss).

## N=C(N)NCCC[C@H](N)C(=O)O [arginine]
[1]
  smear intensity by image analysis: became smaller
  smear of Q40-GFP oligomers (SDD-AGE image): much lighter and less broad smear
[2]
  survival rate: significantly improved
Thio-Q62 protein [3]
  lag phase of turbidity time course: elongated the lag phase
  speed of aggregation (turbidity time course): decreased the speed of aggregation
Thio-Q62 protein [4]
  seed-induced increase in turbidity: markedly decreased
Thio-Q62 protein [5]
  band of β-sheet-rich monomer (native PAGE, CBB): did not appear even when incubated for a sufficient period of time
[6]
  crossing of the blood brain barrier (BBB): known to cross the blood brain barrier
[7]
  counts per particle (CPP): decreased compared to untreated cells
  diffusion time of the fast components (DT1): decreased compared to untreated cells
SCA1 mice
  time to walk without falling from the rotarod: longer time to walk without falling from the rotarod than the untreated SCA1 mice
MJDtr-Q78(S) flies; food containing arginine (100 mM in FIG. 10)
  number of inclusion bodies in eye discs of larvae: decreased
MJDtr-Q78(S) flies; food containing either 25, 50 or 100 mM arginine
  compound eye degeneration: remarkably ameliorated
